For orientation: IC50 means the concentration that gives 50% inhibition.

Numbered stars: 1 amine (or outer) side, 2 acyl side, 3 side chain; on linkers, the order of the positions; unused ones are H or OH. Bridge positions count the residues as written; N and C are the ends. Square brackets hold non-standard residues; d marks the D form. Peptide text beside a SMILES is read from it. * marks the point of attachment. ξ: configuration not given here. Phe(4-COOH) = N[C@@H](Cc1ccc(C(=O)O)cc1)C(=O)O; Bip = N[C@@H](Cc1ccc(-c2ccccc2)cc1)C(=O)O; X13 = N[C@@H](CN*)C(=O)NCCCCCCCCCCC(=O)O; Phe(3-Me) = Cc1cccc(C[C@H](N)C(=O)O)c1; βAsp = O=C(O)[C@H](CC(=O)[*:2])N[*:1]; Cha = N[C@@H](CC1CCCCC1)C(=O)O; Cit = NC(=O)NCCC[C@H](N)C(=O)O; Thr(3ξ) = CC(O)[C@H](N)C(=O)O; 12Ado = NCCCCCCCCCCCC(=O)O; Carboxymethyl = O=C(O)C*; Orn = NCCC[C@H](N)C(=O)O; Aun = NCCCCCCCCCCC(=O)O; Dab = NCC[C@H](N)C(=O)O; Dap = NC[C@H](N)C(=O)O; AEEA = NCCOCCOCC(=O)O

Consider 5 compounds from patent publication US20260022142A1, “MACROCYCLIC IMMUNOMODULATORS” (Bristol-Myers Squibb Company, priority 2022, published 2026).

T1 sequence (Q15116 25-288): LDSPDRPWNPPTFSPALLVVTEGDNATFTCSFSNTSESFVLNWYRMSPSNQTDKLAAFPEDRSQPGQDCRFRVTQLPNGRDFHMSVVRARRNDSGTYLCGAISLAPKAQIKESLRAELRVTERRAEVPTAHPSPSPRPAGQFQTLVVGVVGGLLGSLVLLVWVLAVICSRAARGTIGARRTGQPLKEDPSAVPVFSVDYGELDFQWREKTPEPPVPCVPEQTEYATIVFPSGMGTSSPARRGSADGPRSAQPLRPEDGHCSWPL

The assay addresses T1, PD-1/PD-L1 interaction (PE-labeled human PD-L1-Ig binding to Jurkat cell line over-expressing human PD-1) (Homo sapiens, UniProt Q15116).
T1 construct: expressed in transfected cells; host or cells: Jurkat
Kind of assay: Jurkat-PD-1 Cell Binding High-Content Screening Assay (CBA). Type of assay: cell-based. The note with it: Jurkat cell line over-expressing human PD-1; PE-labeled PD-L1-Ig 20 nM final; read-out: Jurkat hPD1-PDL1 IC50. The method, boiled down:
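Jurkat cells over-expressing human PD-1 (8×10^3 per well, DMEM/10% FCS) preincubated with compound 2 h at 37° C, then PE-labeled human PD-L1-Ig (20 nM final) added for 1 h. Cells fixed with paraformaldehyde, Hoechst-stained, and bound fluorescence quantified by high-content imaging.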
As for `CC(C)C[C@H]1NC(=O)[C@H](CCCN)NC(=O)[C@H](C(C)C)NC(=O)[C@H](Cc2ccc(-c3ccccc3)cc2)NC(=O)[C@H](C(C)C)NC(=O)[C@H](Cc2c[nH]c3ccccc23)NC(=O)[C@H](CC(=O)O)NC(=O)[C@H](Cc2ccc(C(=O)O)cc2)NC(=O)[C@H](Cc2ccc(OCC(=O)O)cc2)NC(=O)CSC[C@@H](C(=O)NCCOCCOCC(=O)N[C@@H](CC(=O)NCCCCCCCCCCCC(=O)O)C(=O)O)NC(=O)[C@H](C(C)O)NC(=O)[C@H](C(C)C)NC(=O)[C@H](CC2CCCCC2)NC(=O)[C@H](CCN)NC1=O` (stereo partly drawn) [Compound 3042] ({CH2CO}-Y(Carboxymethyl)[Phe(4-COOH)]DWV[Bip]V[Orn][dL][Dab][Cha]V[Thr(3ξ)]C[AEEA][βAsp][12Ado]-OH; thioether N-14), the IC50 amounted to 11.5 nM.

Take `Cc1cccc(C[C@@H]2NC(=O)[C@H](CC(=O)O)NC(=O)[C@H](Cc3ccc(OCC(=O)O)cc3)NC(=O)[C@H](CN)NC(=O)CSC[C@@H](C(=O)N[C@@H](CCN)C(=O)NCCCCCCCCCCC(=O)O)NC(=O)[C@H](CN)NC(=O)[C@H](Cc3ccc(O)cc3)NC(=O)[C@H](CC3CCCCC3)NC(=O)[C@H](CCN)NC(=O)[C@@H](CC(C)C)NC(=O)[C@H](CCCN)NC(=O)[C@H](Cc3ccc(O)cc3)NC(=O)[C@H](Cc3ccc(-c4ccccc4)cc3)NC(=O)[C@H](Cc3ccc(O)cc3)NC2=O)c1` [Compound 2510] ({CH2CO}-[Dap]Y(Carboxymethyl)D[Phe(3-Me)]Y[Bip]Y[Orn][dL][Dab][Cha]Y[Dap]C[Dab][Aun]-OH; thioether N-14): the IC50 is 65 nM.

For `CC(C)C[C@H]1NC(=O)[C@H](CCCN)NC(=O)[C@H](C(C)C)NC(=O)[C@H](Cc2ccc(-c3ccccc3)cc2)NC(=O)[C@H](C(C)C)NC(=O)[C@H](Cc2c[nH]c3ccccc23)NC(=O)[C@H](CC(=O)O)NC(=O)[C@H](Cc2ccc(OCC(=O)O)cc2)NC(=O)[C@H](C(C)O)NC(=O)CSC[C@@H](C(=O)NCCOCCOCC(=O)N[C@@H](CC(=O)NCCCCCCCCCCCC(=O)O)C(=O)O)NC(=O)[C@H](CO)NC(=O)[C@H](C(C)C)NC(=O)[C@H](CC2CCCCC2)NC(=O)[C@H](CCN)NC1=O` (stereo partly drawn) [Compound 3041] ({CH2CO}-[Thr(3ξ)]Y(Carboxymethyl)DWV[Bip]V[Orn][dL][Dab][Cha]VSC[AEEA][βAsp][12Ado]-OH; thioether N-14), the IC50 turned out to be 12.7 nM.

On to `Cc1cccc(C[C@@H]2NC(=O)[C@H](CC(=O)O)NC(=O)[C@H](Cc3ccc(OCC(=O)O)cc3)NC(=O)[C@H](CN)NC(=O)CSC[C@@H](C(=O)NC[C@H](N)C(=O)NCCCCCCCCCCC(=O)O)NC(=O)[C@H]([C@@H](C)O)NC(=O)[C@H](C(C)C)NC(=O)[C@H](CC3CCCCC3)NC(=O)[C@H](CCN)NC(=O)[C@@H](CC(C)C)NC(=O)[C@H](CCCN)NC(=O)[C@H](CCCNC(N)=O)NC(=O)[C@H](Cc3ccc(-c4ccccc4)cc3)NC(=O)[C@H](C(C)C)NC2=O)c1` [Compound 2621] ({CH2CO}-[Dap]Y(Carboxymethyl)D[Phe(3-Me)]V[Bip][Cit][Orn][dL][Dab][Cha]VTC-X13; thioether N-14), for which the concentration for half-maximal inhibition (IC50) amounted to 16.8 nM.

In the case of `CC(C)C[C@H]1NC(=O)[C@H](CCCN)NC(=O)[C@H](Cc2ccc(O)cc2)NC(=O)[C@H](Cc2ccc(-c3ccccc3)cc2)NC(=O)[C@H](C(C)C)NC(=O)[C@H](Cc2ccc(O)cc2)NC(=O)[C@H](CC(=O)O)NC(=O)[C@H](Cc2ccc(OCC(=O)O)cc2)NC(=O)[C@H](CN)NC(=O)CSC[C@@H](C(=O)N[C@@H](CCN)C(=O)NCCOCCOCC(=O)NCCCCCCCCCCC(=O)O)NC(=O)[C@H](CCCN)NC(=O)[C@H](C(C)C)NC(=O)[C@H](CC2CCCCC2)NC(=O)[C@H](CCN)NC1=O` [Compound 1302] ({CH2CO}-[Dap]Y(Carboxymethyl)DYV[Bip]Y[Orn][dL][Dab][Cha]V[Orn]C[Dab][AEEA][Aun]-OH; thioether N-14), the half-maximal inhibitory concentration (IC50) is 31.9 nM.
